Results reported in BigSolDB 2.1.

CC[C@H](/C=C/[C@@H](C)[C@H]1CC[C@H]2[C@@H]3CC=C4C[C@@H](OC(=O)/C=C\C(=O)O)CC[C@]4(C)[C@H]3CC[C@]12C)C(C)C
Settings | solubility (mole fraction)
in acetone, 293.15 K | 0.000383
in acetone, 296.65 K | 0.000431
in acetone, 303.65 K | 0.000535
in acetone, 317.15 K | 0.000785
in acetone, 325.65 K | 0.00102
in ethyl acetate, 288.15 K | 0.00146
in ethyl acetate, 293.25 K | 0.00179
in ethyl acetate, 298.15 K | 0.00202
in ethyl acetate, 302.65 K | 0.0028
in ethyl acetate, 308.65 K | 0.00395
in ethyl acetate, 312.65 K | 0.00438
in ethyl acetate, 317.35 K | 0.0053
